Assay results: publication PMC8455565 (Scientific Reports, 2021)

Columns and labels:
CIA model rats = assay: Collagen-induced arthritis (CIA) model, clinical score and body weight; assay type: in vivo, rat; conditions: for Arthritis clinical score: day 8, mean ± SEM
Experimental: All animals were obtained from Charles River Japan (150 ± 10 g, 6 weeks old). The experimental protocols were approved by the animal care and use committee of the Hanmi Research Center and performed in accordance with approved guidelines. Briefly, 7-week-old male Lewis rats were immunized with a collagen emulsion of equal volumes of IFA ([…], Sigma-Aldrich) and bovine type II collagen (total volume, 0.6 mL) via intradermal injection into the base of the tail. Seven days later, the rats were given a booster immunization of 0.3 ml of collagen emulsion in the same manner. The incidence of arthritis was 79% on day 6 after booster immunization, and the rats were randomized into 4 groups when the average clinical score of each animal was 2.8 (on a scale of 16) (n = 20 in each drug-administered group, n = 8 in the CIA control group). […] The arthritis score was determined by grading each paw from 0 to 4 based on erythema, swelling, and flexion of the joint. Body weight was also measured three times per week.

JAK3 = molecular target: T1, JAK3 (Homo sapiens, UniProt P52333); assay: Kinase selectivity biochemical assay, JAK3
T1 sequence (P52333 1-1124): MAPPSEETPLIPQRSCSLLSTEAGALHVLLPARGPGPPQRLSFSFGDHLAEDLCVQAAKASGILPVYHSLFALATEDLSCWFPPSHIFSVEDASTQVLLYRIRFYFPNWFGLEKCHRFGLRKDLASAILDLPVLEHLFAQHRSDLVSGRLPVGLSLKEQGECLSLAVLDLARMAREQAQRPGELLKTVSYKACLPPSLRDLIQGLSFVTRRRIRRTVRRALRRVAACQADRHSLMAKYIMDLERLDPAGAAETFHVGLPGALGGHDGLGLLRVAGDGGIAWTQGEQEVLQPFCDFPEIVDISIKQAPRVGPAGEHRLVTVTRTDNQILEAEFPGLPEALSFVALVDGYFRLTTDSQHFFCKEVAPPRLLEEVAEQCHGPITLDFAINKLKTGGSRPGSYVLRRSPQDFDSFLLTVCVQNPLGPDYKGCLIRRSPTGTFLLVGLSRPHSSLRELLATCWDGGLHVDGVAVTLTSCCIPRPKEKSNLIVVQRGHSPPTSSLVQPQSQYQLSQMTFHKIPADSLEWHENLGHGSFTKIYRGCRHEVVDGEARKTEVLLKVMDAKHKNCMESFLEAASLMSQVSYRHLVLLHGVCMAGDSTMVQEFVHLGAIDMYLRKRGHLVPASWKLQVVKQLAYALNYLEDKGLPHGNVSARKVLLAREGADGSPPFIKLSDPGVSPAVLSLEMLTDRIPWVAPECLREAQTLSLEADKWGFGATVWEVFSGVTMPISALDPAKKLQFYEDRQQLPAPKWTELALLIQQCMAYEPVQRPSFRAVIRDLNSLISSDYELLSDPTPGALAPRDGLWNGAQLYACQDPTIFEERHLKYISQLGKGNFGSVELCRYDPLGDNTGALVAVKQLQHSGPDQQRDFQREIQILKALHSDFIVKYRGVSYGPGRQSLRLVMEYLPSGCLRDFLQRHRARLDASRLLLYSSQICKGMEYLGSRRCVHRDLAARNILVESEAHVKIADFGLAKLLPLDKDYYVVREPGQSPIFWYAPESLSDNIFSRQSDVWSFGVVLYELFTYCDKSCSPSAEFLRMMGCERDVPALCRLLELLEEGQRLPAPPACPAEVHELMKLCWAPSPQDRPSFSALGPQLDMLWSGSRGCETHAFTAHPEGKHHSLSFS

BTK [1] = molecular target: T2, BTK (Rattus norvegicus, UniProt Q5S255); assay: BTK occupancy molecular probe assay in rat PBMCs; assay type: cell-based; conditions: 1 h treatment, biotinylated probe; read-out: IC50, BTK target modulation (occupancy) in rat PBMCs
T2 construct: endogenous in cells; host or cells: rat PBMCs (normal rats in vitro; CIA model rats ex vivo)
Experimental: The BTK occupancy assay and analysis of BTK phosphorylation inhibition were performed as described previously. Briefly, isolated PBMCs were lysed with RIPA buffer (R0278, Sigma-Aldrich) containing 1 × protease/phosphatase inhibitor (1861281, Thermo Fisher Scientific) and EDTA (1861274, Thermo Fisher Scientific). The supernatants were collected by 10 min at 14,000 × g in microcentrifuge at 4 °C and biotinylated probe was added to bind free BTK for 1 h. Rabbit anti-BTK Ab (1:5000 in 1% BSA) bound the captured BTK/probe complex, and was detected with […] antibody conjugated with HRP then ultra-TMB solution was added to each well for the free BTK analysis. Analysis of free and total BTK levels for the phase I study was conducted by Cambridge Biomedical Inc. (MA, USA). BTK occupancy was calculated by taking the free BTK and total BTK results from a given donor and used the following formula: %BTKoccupancy=100%-FreeBTK/totalBTK×100.
BTK occupancy (%) was calculated from the free BTK percentage, which was compared with that of the untreated control group. […] Bone erosion ( →) was quantified a subchondral and bone destruction and synovitis (*) was scored degree of pannus formation, including synovial inflammation, hypertrophy, interstitial edema, and fibrosis (H&E). Cartilage damage (□) was semiquantitatively scored as an intensity of Safranin-O staining (red). […]

[2] = Phase I pharmacokinetics in healthy volunteers; assay type: in vivo; conditions: male, human, plasma, oral; after multiple doses, all dose levels (BID)
Experimental: PK/PD data from 24 subjects who had received the drug BID among the 90 total subjects who participated in the MAD study were analyzed. Blood was collected on day 1 before drug administration and 1 h, 2 h, 4 h, and 12 h after drug administration. Blood samples were taken 3 days and 2 h after drug administration. Additional blood samples were taken on day 6 (5, 20, and 60 mg/kg), day 15 (40 mg/kg), day 17, and day 21 for PK/PD analysis.
After drug administration, whole blood was collected from CIA model rats and human subjects at the indicated times. Plasma was obtained by centrifugation at 12,000 rpm for 2 min and stored at − 20 °C until analysis.

BTK [3] = molecular target: BTK (Homo sapiens, UniProt Q06187); assay: hBTK Lanthascreen biochemical activity
Sequence of BTK (Homo sapiens, UniProt Q06187) (Q06187 whole entry): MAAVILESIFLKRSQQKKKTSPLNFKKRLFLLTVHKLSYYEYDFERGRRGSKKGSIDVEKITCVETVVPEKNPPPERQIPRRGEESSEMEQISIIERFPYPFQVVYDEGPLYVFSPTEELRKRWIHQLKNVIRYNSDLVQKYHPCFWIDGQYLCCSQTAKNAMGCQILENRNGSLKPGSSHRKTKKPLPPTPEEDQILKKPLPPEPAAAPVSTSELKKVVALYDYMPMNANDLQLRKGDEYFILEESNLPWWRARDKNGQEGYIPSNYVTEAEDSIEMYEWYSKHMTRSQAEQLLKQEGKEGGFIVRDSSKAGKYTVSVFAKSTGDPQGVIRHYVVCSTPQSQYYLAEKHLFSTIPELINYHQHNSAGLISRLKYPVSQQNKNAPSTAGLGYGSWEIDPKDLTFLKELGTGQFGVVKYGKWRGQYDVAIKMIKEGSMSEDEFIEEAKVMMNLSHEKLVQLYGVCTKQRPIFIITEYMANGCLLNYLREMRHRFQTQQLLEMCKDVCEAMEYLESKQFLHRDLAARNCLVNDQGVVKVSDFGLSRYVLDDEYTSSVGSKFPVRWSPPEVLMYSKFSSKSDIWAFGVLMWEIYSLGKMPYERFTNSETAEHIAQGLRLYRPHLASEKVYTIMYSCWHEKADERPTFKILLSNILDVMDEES

T2 sequence (Q5S255 1-660): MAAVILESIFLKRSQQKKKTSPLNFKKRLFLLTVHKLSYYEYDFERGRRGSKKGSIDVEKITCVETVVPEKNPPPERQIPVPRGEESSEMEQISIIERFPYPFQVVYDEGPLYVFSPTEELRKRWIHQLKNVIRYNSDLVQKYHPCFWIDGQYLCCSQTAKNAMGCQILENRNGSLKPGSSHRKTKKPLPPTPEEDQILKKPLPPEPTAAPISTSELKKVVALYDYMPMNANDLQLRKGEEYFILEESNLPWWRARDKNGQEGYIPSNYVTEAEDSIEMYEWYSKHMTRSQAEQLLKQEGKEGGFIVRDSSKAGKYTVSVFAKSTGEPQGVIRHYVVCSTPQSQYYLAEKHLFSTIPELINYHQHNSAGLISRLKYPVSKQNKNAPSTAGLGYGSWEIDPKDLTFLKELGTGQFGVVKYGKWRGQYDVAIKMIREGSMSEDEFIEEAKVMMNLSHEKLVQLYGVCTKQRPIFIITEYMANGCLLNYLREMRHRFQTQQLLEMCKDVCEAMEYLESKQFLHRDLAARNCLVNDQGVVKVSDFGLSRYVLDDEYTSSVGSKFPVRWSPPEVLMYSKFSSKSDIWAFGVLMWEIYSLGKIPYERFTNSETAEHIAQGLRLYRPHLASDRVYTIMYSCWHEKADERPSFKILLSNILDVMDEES

C=CC(=O)Nc1cccc(Oc2nc(Nc3ccc(N4CCN(C)CC4)cc3)nc3ccoc23)c1 [Poseltinib]
Arthritis clinical score (CIA model rats; 0.3 mg/kg oral once daily): 8.5 ± 0.5 | Arthritis clinical score (CIA model rats; 1 mg/kg oral once daily): 6.7 ± 0.6 | disease-induced body weight loss (CIA model rats; 3 mg/kg): prevented weight loss | Arthritis clinical score (CIA model rats; 3 mg/kg oral once daily): 2.7 ± 0.4 | selectivity toward BTK over JAK3 (JAK3): 7.5 × | IC50 (BTK [1]): 14.6 ± 3.3 nM | Tmax [2]: 1 to 2 h | IC50 (BTK [3]): 6 nM
